Test systems include A498; ACHN; CAKI-1; DMS-114; LOX IMVI; M14; M19-MEL; MOLT-4; Malme-3M; NCI-H226; OVCAR-4; OVCAR-8; SK-MEL-28; SN12C; SNB-19; SR; SF-539; SNB-75.
Experiment in all cases: NCI tumour cell line growth inhibition, 48 h

Each structure is given as a SMILES string.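 The compound was tested at five concentrations on cells cultured in 96-well plates, with a 48-hour exposure period. Here, GI50 denotes the concentration required for 50% inhibition of growth.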 Active and inactive are the calls of the source. No stated cut-off is given here; in the data, active = GI50 up to about 1.1 µM and inactive = higher.

Regarding `COC(=O)C(Br)C1CCc2ccccc21` (configuration not stated), the GI50 in the assay with A498, in the assay on ACHN, in the assay on CAKI-1, with DMS-114, in the assay with LOX IMVI and in the assay with M14 was > 100 µM (inactive) throughout. The GI50 was > 100 µM (inactive) with M19-MEL; 68.7 µM (inactive) in the assay on MOLT-4; > 100 µM (inactive) in the assay on Malme-3M; 46.3 µM (inactive) in the assay with NCI-H226; 53.2 µM (inactive) in the assay with OVCAR-4; > 100 µM (inactive) with OVCAR-8. The GI50 in the assay on SK-MEL-28 is > 100 µM (inactive); in the assay on SN12C, > 100 µM (inactive); in the assay with SNB-19 it was 82.2 µM (inactive); in the assay on SR, 42.8 µM (inactive).
In the case of `CC(=O)NNc1nc(C)c(C(=O)/C=C/c2ccc(/C=C/C(=O)c3sc(NNC(C)=O)nc3C)cc2)s1`, the GI50 in the assay with ACHN is > 100 µM (inactive); in the assay on CAKI-1, > 100 µM (inactive); in the assay on DMS-114, > 100 µM (inactive); in the assay on LOX IMVI it was > 100 µM (inactive); with M14 it was 43.2 µM (inactive); with M19-MEL it was > 100 µM (inactive). Also, the GI50 with MOLT-4, in the assay on Malme-3M, in the assay with NCI-H226, in the assay with OVCAR-4, with OVCAR-8 and in the assay on SF-539 was > 100 µM (inactive) in each case. Moreover, the GI50 in the assay on SK-MEL-28, in the assay on SN12C, in the assay on SNB-19 and in the assay with SR was > 100 µM (inactive) each time.
For `CCOC1c2cc(C(C)C)c(O)c(O)c2[C@@]23CCCC(C)(C)C2C1OC3=O` (some centres not stated), the GI50 with ACHN is 78 µM (inactive); in the assay on CAKI-1 it was > 100 µM (inactive); in the assay with DMS-114, 62.4 µM (inactive); in the assay with LOX IMVI, > 100 µM (inactive); with M14, > 100 µM (inactive); in the assay on M19-MEL, > 100 µM (inactive). Also, the GI50 in the assay on MOLT-4 is 50 µM (inactive); in the assay with Malme-3M it was > 100 µM (inactive); in the assay on NCI-H226, > 100 µM (inactive); in the assay with OVCAR-8 it was > 100 µM (inactive); with SF-539, > 100 µM (inactive); in the assay with SK-MEL-28 it was > 100 µM (inactive). Besides, the GI50 in the assay on SN12C is 94 µM (inactive); in the assay on SNB-19, > 100 µM (inactive); with SNB-75, 47.8 µM (inactive); with SR, 61.4 µM (inactive).
`CC(C)C1=CC(=O)C(C)(C2=NC(C)(C)CO2)c2ccccc21` (configuration not stated): the GI50 was > 100 µM (inactive) in the assay with ACHN; > 100 µM (inactive) in the assay with CAKI-1; 51.4 µM (inactive) with DMS-114; > 100 µM (inactive) in the assay on M14; > 100 µM (inactive) in the assay on M19-MEL; 67.3 µM (inactive) with MOLT-4. The GI50 in the assay with Malme-3M was > 100 µM (inactive); with NCI-H226 it was 51.5 µM (inactive); in the assay on OVCAR-4, > 100 µM (inactive); in the assay on OVCAR-8, > 100 µM (inactive); in the assay on SF-539, > 100 µM (inactive); with SK-MEL-28, > 100 µM (inactive). Besides, the GI50 with SN12C was > 100 µM (inactive); in the assay on SNB-19, > 100 µM (inactive); with SNB-75, 96.4 µM (inactive); with SR, 60.3 µM (inactive).
On to `CCCP1(=O)C=C(C)C(=C(Cl)Cl)C(C)=C1` (configuration not stated), for which the GI50 with A498 was 68.9 µM (inactive); in the assay with ACHN it was 44.3 µM (inactive); in the assay with DMS-114 it was 36.1 µM (inactive); in the assay with M14, 33.7 µM (inactive); with M19-MEL it was 47.9 µM (inactive); in the assay on MOLT-4, 31 µM (inactive). In addition, the GI50 with Malme-3M was 25.7 µM (inactive); in the assay with OVCAR-4, > 100 µM (inactive); in the assay on OVCAR-8 it was 37.9 µM (inactive); with SF-539 it was 37.3 µM (inactive); in the assay on SK-MEL-28 it was 44.1 µM (inactive); in the assay with SN12C, 24.6 µM (inactive). For the same compound, the GI50 in the assay on SR was 24.5 µM (inactive).
`Cc1ccc(NC(=O)CC/C(CC(=O)c2ccc(F)cc2)=N\NC(=O)C(=O)NN)cc1C`: the GI50 in the assay with A498, in the assay with ACHN, in the assay on CAKI-1, in the assay on DMS-114, with LOX IMVI and with M14 was > 100 µM (inactive) throughout. Also, the GI50 with M19-MEL, in the assay with Malme-3M, with NCI-H226, in the assay with OVCAR-4, in the assay with OVCAR-8 and with SF-539 was > 100 µM (inactive) in each case. Besides, the GI50 in the assay on SK-MEL-28, in the assay on SN12C, with SNB-19 and with SNB-75 was > 100 µM (inactive) throughout.
Turning to `CCCCCCCCCCCCCC(=O)OCC(C[As](=O)(O)O)OC(=O)CCCCCCCCCCCCC` (configuration not stated), the GI50 in the assay with A498 is > 100 µM (inactive); in the assay with ACHN it was > 100 µM (inactive); with CAKI-1 it was > 100 µM (inactive); with DMS-114, 74 µM (inactive); in the assay with M14, > 100 µM (inactive); with MOLT-4, > 100 µM (inactive). For the same compound, the GI50 with Malme-3M, with NCI-H226, with OVCAR-4, in the assay with OVCAR-8, in the assay with SF-539 and with SK-MEL-28 was > 100 µM (inactive) in each case. In addition, the GI50 with SN12C is 92 µM (inactive); with SNB-19 it was > 100 µM (inactive); in the assay on SNB-75, > 100 µM (inactive); with SR it was > 100 µM (inactive).
On to `CN1CC[C@@H](c2c(O)cc(O)c3c(=O)cc(-c4ccccc4Cl)oc23)[C@@H](O)C1`, for which the GI50 with A498 is 0.0507 µM (active); in the assay with ACHN, 0.0237 µM (active); in the assay on CAKI-1, 0.0343 µM (active); in the assay on DMS-114, 0.113 µM (active); in the assay with LOX IMVI, 0.0191 µM (active); in the assay with M14, 0.034 µM (active). Also, the GI50 in the assay on MOLT-4 was 0.0367 µM (active); with Malme-3M, 0.124 µM (active); with NCI-H226, 0.0357 µM (active); with OVCAR-4, 0.0643 µM (active); with OVCAR-8 it was 0.0401 µM (active); in the assay on SF-539, 0.0343 µM (active). The GI50 in the assay on SK-MEL-28 is 0.0455 µM (active); with SN12C, 0.0471 µM (active); with SNB-19, 0.0407 µM (active); with SNB-75, 0.0251 µM (active); with SR, 0.0263 µM (active).
In the case of `COC(=O)C1CCc2nnc(-c3cccnc3)n21` (configuration not stated), the GI50 in the assay with A498, with ACHN, with CAKI-1, in the assay on DMS-114, with M14 and in the assay on M19-MEL was > 100 µM (inactive) each time. Besides, the GI50 in the assay on MOLT-4, with Malme-3M, in the assay with NCI-H226, in the assay with OVCAR-4, with OVCAR-8 and in the assay on SF-539 was > 100 µM (inactive) each time. Further, the GI50 in the assay with SK-MEL-28, in the assay with SN12C, in the assay with SNB-19, in the assay on SNB-75 and in the assay on SR was > 100 µM (inactive) throughout.
Take `C#C[C@@H](CCCC)OC(=O)N[C@H](C)c1ccccc1`: the GI50 in the assay with ACHN is 43.8 µM (inactive); in the assay on CAKI-1, 42.9 µM (inactive); with DMS-114, 25.1 µM (inactive); in the assay on LOX IMVI it was 33.2 µM (inactive); in the assay with M14 it was 11.5 µM (inactive); in the assay with M19-MEL it was 38.5 µM (inactive). Further, the GI50 with MOLT-4 is 27.3 µM (inactive); with NCI-H226 it was 22.5 µM (inactive); in the assay with OVCAR-4, 39.2 µM (inactive); in the assay on OVCAR-8, 13.7 µM (inactive); with SF-539, 2.16 µM (inactive); in the assay with SK-MEL-28 it was > 100 µM (inactive). Moreover, the GI50 with SN12C is 71.6 µM (inactive); in the assay with SNB-19 it was 93.3 µM (inactive); in the assay with SNB-75, 33.3 µM (inactive); in the assay with SR it was 21.3 µM (inactive).
`CC/C=C\C/C=C\C1CC(=O)NCCCNCCCCN1` (configuration not stated): the GI50 was > 100 µM (inactive) with CAKI-1; > 100 µM (inactive) in the assay on DMS-114; > 100 µM (inactive) in the assay with LOX IMVI; 48 µM (inactive) with M14; > 100 µM (inactive) in the assay with M19-MEL; 15.6 µM (inactive) in the assay with Malme-3M. Moreover, the GI50 in the assay with NCI-H226 is 59.7 µM (inactive); in the assay on OVCAR-4, > 100 µM (inactive); with OVCAR-8 it was > 100 µM (inactive); in the assay on SF-539, > 100 µM (inactive); in the assay on SK-MEL-28 it was > 100 µM (inactive); in the assay on SN12C, > 100 µM (inactive). The GI50 with SNB-19, with SNB-75 and with SR was > 100 µM (inactive) throughout.
As to `NC(=O)CCC(NC(=O)C(F)(F)F)C(=O)O` (configuration not stated), the GI50 in the assay with A498, in the assay on ACHN, with CAKI-1, in the assay on DMS-114, in the assay with LOX IMVI and with M14 was > 100 µM (inactive) throughout. Also, the GI50 in the assay with M19-MEL, in the assay on MOLT-4, in the assay on Malme-3M, in the assay on NCI-H226, in the assay on OVCAR-4 and in the assay with OVCAR-8 was > 100 µM (inactive) each time. Moreover, the GI50 in the assay with SF-539, in the assay on SK-MEL-28, in the assay on SN12C, in the assay on SNB-19 and in the assay on SNB-75 was > 100 µM (inactive) each time.
On to `O=C1/C(=C/c2ccc(Cl)cc2)COc2ccc(Br)cc21`, for which the GI50 in the assay with A498, with ACHN, in the assay with DMS-114, in the assay on LOX IMVI, in the assay with M19-MEL and with MOLT-4 was > 100 µM (inactive) each time. Moreover, the GI50 with Malme-3M, in the assay on OVCAR-8, in the assay on SF-539, in the assay with SK-MEL-28 and in the assay with SNB-75 was > 100 µM (inactive) each time.
